pIC50: −log10 of the molar value. Counter-ions that a name gives are not always drawn. Like-named read-outs stand apart in the source and are kept apart here.
Columns and labels:
human PI3Kα protein = target: T1, human PI3Kα protein (Homo sapiens, UniProt P42336); test: PI3Kα enzyme assay (ADP-Glo); type: biochemical; settings: read-out: PI3Kα enzyme inhibitory activity
T1 construct: purchased Carna Biosciences, Inc; host or cells: baculovirus expression system
Summary of the method: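 Biotinylated human PI3Kα (baculovirus-expressed, 4.5 nmol/L) pre-incubated 15 min with compound in Tris-HCl pH 7.5, MgCl2, BSA; reaction 60 min at 25° C with 50 μmol/L PIP2 and 100 μmol/L ATP final. ADP quantified by ADP-Glo luminescence; IC50 calculated.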

[1] = target: T2, GST fusion human ERK2 protein (Homo sapiens, UniProt P28482); test: ERK2 enzyme assay (2); type: biochemical; settings: read-out: ERK2 enzyme inhibitory activity (2)
T2 construct: purchased Carna Biosciences, Inc; host or cells: E. coli expression system
T2 sequence (P28482 whole entry, the tested form may be a part): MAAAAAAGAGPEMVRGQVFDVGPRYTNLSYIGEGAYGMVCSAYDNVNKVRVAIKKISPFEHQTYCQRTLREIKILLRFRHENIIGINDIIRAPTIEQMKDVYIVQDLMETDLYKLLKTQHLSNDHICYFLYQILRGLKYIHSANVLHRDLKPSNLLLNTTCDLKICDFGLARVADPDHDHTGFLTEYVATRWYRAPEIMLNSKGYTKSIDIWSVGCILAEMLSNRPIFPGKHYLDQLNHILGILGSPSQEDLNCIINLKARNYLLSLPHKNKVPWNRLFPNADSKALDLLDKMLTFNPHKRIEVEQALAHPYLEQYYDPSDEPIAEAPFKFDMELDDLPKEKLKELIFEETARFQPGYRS
Summary of the method: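 IC50 values come from mobility-shift measurement of phosphorylated versus unphosphorylated 5-FAM peptide substrate after EDTA quench. Beforehand, compound and 1.25 nmol/L E. coli-expressed GST–human ERK2 stood 15 min at room temperature (pH 7.5), then 1 mmol/L ATP and 4.25 μmol/L substrate (final) were added for 120 min at 25 °C.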

T1 sequence (P42336 whole entry): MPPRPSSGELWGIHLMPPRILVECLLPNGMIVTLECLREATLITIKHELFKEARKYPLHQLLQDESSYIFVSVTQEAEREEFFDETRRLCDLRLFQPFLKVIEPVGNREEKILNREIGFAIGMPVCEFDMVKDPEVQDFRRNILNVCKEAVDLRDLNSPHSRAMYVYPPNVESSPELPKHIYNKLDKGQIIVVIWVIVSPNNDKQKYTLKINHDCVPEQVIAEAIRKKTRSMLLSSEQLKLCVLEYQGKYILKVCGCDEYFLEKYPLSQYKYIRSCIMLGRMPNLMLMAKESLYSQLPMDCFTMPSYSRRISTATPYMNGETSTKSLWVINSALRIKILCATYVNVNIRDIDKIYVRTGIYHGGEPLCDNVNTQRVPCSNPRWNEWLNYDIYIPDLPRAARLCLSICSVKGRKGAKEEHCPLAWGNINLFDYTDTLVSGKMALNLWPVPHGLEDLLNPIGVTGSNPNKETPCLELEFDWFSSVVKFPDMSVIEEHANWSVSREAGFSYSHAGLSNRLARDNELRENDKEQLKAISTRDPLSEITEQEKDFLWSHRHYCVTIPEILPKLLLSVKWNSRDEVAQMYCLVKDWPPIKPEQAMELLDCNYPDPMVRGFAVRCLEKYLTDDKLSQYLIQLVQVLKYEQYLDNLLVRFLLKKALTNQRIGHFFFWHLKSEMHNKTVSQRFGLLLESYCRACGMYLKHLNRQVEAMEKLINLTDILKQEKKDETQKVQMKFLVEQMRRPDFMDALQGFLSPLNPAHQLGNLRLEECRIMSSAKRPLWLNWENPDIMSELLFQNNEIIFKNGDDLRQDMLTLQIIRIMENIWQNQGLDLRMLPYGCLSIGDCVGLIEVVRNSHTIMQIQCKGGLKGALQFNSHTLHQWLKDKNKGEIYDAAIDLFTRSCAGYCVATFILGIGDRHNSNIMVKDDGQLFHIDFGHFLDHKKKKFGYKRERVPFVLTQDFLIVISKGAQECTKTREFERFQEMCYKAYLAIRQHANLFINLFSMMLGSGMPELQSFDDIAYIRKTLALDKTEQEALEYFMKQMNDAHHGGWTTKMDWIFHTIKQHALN
T1 sequence (P27986 whole entry partner): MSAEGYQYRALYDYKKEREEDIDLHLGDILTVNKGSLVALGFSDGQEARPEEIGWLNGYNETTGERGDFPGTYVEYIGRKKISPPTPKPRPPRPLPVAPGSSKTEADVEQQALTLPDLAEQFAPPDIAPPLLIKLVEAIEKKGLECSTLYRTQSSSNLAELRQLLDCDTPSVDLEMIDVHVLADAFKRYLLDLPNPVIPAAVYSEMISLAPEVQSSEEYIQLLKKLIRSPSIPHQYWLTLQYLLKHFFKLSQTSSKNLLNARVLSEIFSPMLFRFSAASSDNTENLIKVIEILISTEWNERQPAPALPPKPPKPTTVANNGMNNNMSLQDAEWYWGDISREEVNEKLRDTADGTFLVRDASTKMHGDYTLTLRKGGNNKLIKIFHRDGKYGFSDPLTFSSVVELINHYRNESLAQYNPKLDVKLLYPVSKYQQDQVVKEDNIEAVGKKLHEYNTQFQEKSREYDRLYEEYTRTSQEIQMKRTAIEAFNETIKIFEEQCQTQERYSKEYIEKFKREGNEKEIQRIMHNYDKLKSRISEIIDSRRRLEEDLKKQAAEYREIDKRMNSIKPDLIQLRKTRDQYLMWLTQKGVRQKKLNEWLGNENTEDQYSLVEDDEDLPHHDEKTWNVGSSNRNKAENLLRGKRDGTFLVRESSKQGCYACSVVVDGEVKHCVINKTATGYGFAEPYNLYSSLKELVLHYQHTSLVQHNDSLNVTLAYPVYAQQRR

| Structure (SMILES) | pIC50 (human PI3Kα protein) | pIC50 [1] | pIC50 ([1]; ERK2 enzyme assay (2)) |
| --- | --- | --- | --- |
| Cc1ccc(S(=O)(=O)Nc2cnc3ccc(Nc4cc(C(C)C)cnn4)nc3c2)cc1 [Example 0839, N-(6-((5-isopropylpyridazin-3-yl)amino)-1,5-naphthyridin-3-yl)-4-methylbenzene sulfonamide] | 4.30 to 5.00 |  | 5.00 to 6.00 |
| CC(C)OC1CN(CCCn2cc(-c3cnc4ccc(Nc5cc(C(C)C)cnn5)nc4c3)cn2)C1 [Example 0710, 7-(1-(3-(3-Isopropoxyazetidin-1-yl)propyl)-1H-pyrazol-4-yl)-N-(5-isopropylpyridazin-3-yl)-1,5-naphthyridine-2-amine] | > 6.00 |  | > 6.00 |
| CC(C)c1cnnc(Nc2ccc3ncc(-c4cncnc4)cc3n2)c1 [Example 0604] | 4.30 to 5.00 |  | > 6.00 |
| CC(C)c1cnnc(Nc2ccc3ncc(N4CCCN(C)CC4)cc3n2)c1 [Example 0871] | 5.00 to 6.00 |  | 5.00 to 6.00 |
| CNc1cc(-c2cnc3ccc(Nc4cc(C(C)C)cnn4)nc3c2)ccn1 [Example 0423, N-(5-isopropylpyridazin-3-yl)-7-(2-(methylamino)pyridin-4-yl)-1,5-naphthyridine-2-amine hydrochloride] | > 6.00 |  | > 6.00 |
| CC(C)c1cnnc(Nc2ccc3ncc(N4CC(OCC5CC5)C4)cc3n2)c1 [Example 0869] | 5.00 to 6.00 |  | > 6.00 |
| CC(C)c1cnnc(Nc2ccc3ncc(-c4cnn(CCCN5CCN(C(=O)N(C)C)CC5)c4)cc3n2)c1 [Example 0433] | > 6.00 |  | > 6.00 |
| CC(C)c1cnnc(Nc2ccc3ncc(-c4cnn(CCCN5CC(N(C)S(C)(=O)=O)C5)c4)cc3n2)c1 [Example 0721, N-(1-(3-(4-(6-((5-isopropylpyridazin-3-yl)amino)-1,5-naphthyridin-3-yl)-1H-pyrazol-1-yl)propyl)azetidin-3-yl)-N-methylmethane sulfonamide] | > 6.00 |  | > 6.00 |
| CC(C)c1cnnc(Nc2ccc3ncc(-c4cnn(CCCN5CC(NC(=O)OC(C)(C)C)C5)c4)cc3n2)c1 [Example 0693] | > 6.00 |  | > 6.00 |
| CC(C)c1cnnc(Nc2ccc3nccc(-c4cnn(C)c4)c3n2)c1 [Example 0447, N-(5-isopropylpyridazin-3-yl)-8-(1-methyl-1H-pyrazol-4-yl)-1,5-naphthyridine-2-amine] | > 6.00 |  | 5.00 to 6.00 |
| c1cnnc(Nc2ccc3ncc(-c4cnn(CCCN5CCOCC5)c4)cc3n2)c1 [Example 0601, 7-(1-(3-Morpholinopropyl)-1H-pyrazol-4-yl)-N-(pyridazin-3-yl)-1,5-naphthyridine-2-amine] | 5.00 to 6.00 |  | > 6.00 |
| CC(C)c1cnnc(Nc2ccc3ncc(-n4cnc(CCN(C)C)c4)cc3n2)c1 [Example 0503, 7-(4-(2-(Dimethylamino)ethyl)-1H-imidazol-1-yl)-N-(5-isopropylpyridazin-3-yl)-1,5-naphthyridine-2-amine] | > 6.00 |  | > 6.00 |
| CC(C)c1cnnc(Nc2ccc3ncc(-c4cnn(CC(CN5CCOCC5)OCC5CC5)c4)cc3n2)c1 (stereo not shown) [Example 0745] | > 6.00 |  | > 6.00 |
| CC(C)c1cnnc(Nc2ccc3ncc(-c4cnn(CCCN5C[C@@H](C)N(C(=O)N(C)C)[C@@H](C)C5)c4)cc3n2)c1 [Example 0436] | > 6.00 |  | > 6.00 |
| CC(=O)N1CCCC(Cn2cc(-c3cnc4ccc(Nc5cc(C(C)C)cnn5)nc4c3)cn2)C1 (stereo not shown) [Example 0548] | > 6.00 |  | > 6.00 |
| Cc1cn(-c2cnc3ccc(Nc4cc(C(C)C)cnn4)nc3c2)c(C)n1 [Example 0698, 7-(2,4-dimethyl-1H-imidazol-1-yl)-N-(5-isopropylpyridazin-3-yl)-1,5-naphthyridine-2-amine] | 5.00 to 6.00 |  | > 6.00 |
| CC(C)c1cnnc(Nc2ccc3ncc(-c4cnn(CC#N)c4)cc3n2)c1 [Example 0928, 2-(4-(6-((5-isopropylpyridazin-3-yl)amino)-1,5-naphthyridin-3-yl)-1H-pyrazol-1-yl)acetonitrile] | > 6.00 | > 6.00 |  |
| CC(C)c1cnnc(Nc2ccc3ncc(-c4cnn(C)c4-c4cccnc4)cc3n2)c1 [Example 0575] | > 6.00 |  | > 6.00 |
| CC(C)c1cnnc(Nc2ccc3ncc(-c4cnn(CCCN5CC(C(N)=O)C5)c4)cc3n2)c1 [Example 0670] | > 6.00 |  | > 6.00 |
| COC(=O)c1ccc(Cn2cc(-c3cnc4ccc(Nc5cc(C(C)C)cnn5)nc4c3)cn2)cc1 [Example 0792] | > 6.00 |  | > 6.00 |
| CC(C)c1cnnc(Nc2ccc3ncc(-c4cnn(CCCN5CCN(C)CC5=O)c4)cc3n2)c1 [Example 0425] | > 6.00 |  | > 6.00 |
| CC(=O)N1CCCC(Nc2cnc3ccc(Nc4cc(C(C)C)cnn4)nc3c2)C1 (stereo not shown) [Example 0541] | > 6.00 |  | 5.00 to 6.00 |
| CC(C)c1cnnc(Nc2ccc3ncc(-c4cnn(CCCN5CC(O)(CCO)C5)c4)cc3n2)c1 [Example 0702] | > 6.00 |  | > 6.00 |
| CC(C)c1cnnc(Nc2ccc3ncc(-c4cnn(CCOC5CN(S(C)(=O)=O)C5)c4)cc3n2)c1 [Example 0755, N-(5-isopropylpyridazin-3-yl)-7-(1-(2-((1-(methylsulfonyl)azetidin-3-yl)oxy)ethyl)-1H-pyrazol-4-yl)-1,5-naphthyridine-2-amine] | > 6.00 |  | > 6.00 |

Second part, the molecule after the results:

| pIC50 (human PI3Kα protein) | pIC50 [1] | pIC50 ([1]; ERK2 enzyme assay (2)) | Structure (SMILES) |
| --- | --- | --- | --- |
| > 6.00 | > 6.00 |  | Cc1nn(C)cc1-c1cnc2ccc(Nc3cc(C4CCCCC4)cnn3)nc2c1 [Example 0926, N-(5-cyclohexylpyridazin-3-yl)-7-(1,3-dimethyl-1H-pyrazol-4-yl)-1,5-naphthyridine-2-amine] |
| > 6.00 |  | > 6.00 | Cc1ncc(-c2nn(C)cc2-c2cnc3ccc(Nc4cc(C(C)C)cnn4)nc3c2)s1 [Example 0587] |
| > 6.00 |  | > 6.00 | CC(C)c1cnnc(Nc2ccc3ncc(-c4cnc(OC5CCN(C)CC5)s4)cc3n2)c1 [Example 0507] |
| > 6.00 |  | > 6.00 | CC(C)c1cnnc(Nc2ccc3ncc(-c4cn(C)nc4C4CN(C(=O)OC(C)(C)C)C4)cc3n2)c1 [Example 0779, tert-butyl 3-(4-(6-((5-isopropylpyridazin-3-yl)amino)-1,5-naphthyridin-3-yl)-1-methyl-1H-pyrazol-3-yl)azetidine-1-carboxylate] |
| > 6.00 | > 6.00 |  | Cc1nn(C)cc1-c1cnc2ccc(Nc3cc(CS(=O)(=O)N(C)C)cnn3)nc2c1 [Example 0925, 1-(6-((7-(1,3-Dimethyl-1H-pyrazol-4-yl)-1,5-naphthyridin-2-yl)amino)pyridazin-4-yl)-N,N-dimethylmethane sulfonamide] |
| > 6.00 |  | > 6.00 | CC(C)c1cnnc(Nc2ccc3ncc(-c4cnn(CCN5CCCCC5)c4)cc3n2)c1 [Example 0609, N-(5-isopropylpyridazin-3-yl)-7-(1-(2-(piperidin-1-yl)ethyl)-1H-pyrazol-4-yl)-1,5-naphthyridine-2-amine] |
| > 6.00 |  | > 6.00 | CC(C)c1cnnc(Nc2ccc3ncc(-c4cncs4)cc3n2)c1 [Example 0620] |
| 5.00 to 6.00 | 5.00 to 6.00 |  | COCCN(CCOC)c1nn(C)cc1-c1cnc2ccc(Nc3cc(C(C)C)cnn3)nc2c1 [Example 0947] |
| > 6.00 |  | > 6.00 | CCc1cnnc(Nc2ccc3ncc(-c4cn(C)nc4-c4cccnc4)cc3n2)c1 [Example 0542, N-(5-ethylpyridazin-3-yl)-7-(1-methyl-3-(pyridin-3-yl)-1H-pyrazol-4-yl)-1,5-naphthyridine-2-amine] |
| > 6.00 |  | > 6.00 | CO[C@H]1CC[C@H](Cn2cc(-c3cnc4ccc(Nc5cc(C(C)C)cnn5)nc4c3)cn2)CC1 [Example 0522, N-(5-isopropylpyridazin-3-yl)-7-(1-(((1r,4r)-4-methoxycyclohexyl)methyl)-1H-pyrazol-4-yl)-1,5-naphthyridine-2-amine] |
| > 6.00 |  | > 6.00 | COCCn1cc(-c2nn(C)cc2-c2cnc3ccc(Nc4cc(C(C)C)cnn4)nc3c2)cn1 [Example 0784] |
| > 6.00 |  | > 6.00 | CC(C)c1cnnc(Nc2ccc3ncc(-c4cn(C)nc4N(C)c4cccnc4)cc3n2)c1 [Example 0802] |
| > 6.00 |  | > 6.00 | CC(C)c1cnnc(Nc2ccc3ncc(-c4cn(C)nc4N)cc3n2)c1 [Example 0636, 7-(3-amino-1-methyl-1H-pyrazol-4-yl)-N-(5-isopropylpyridazin-3-yl)-1,5-naphthyridine-2-amine] |
| > 6.00 | > 6.00 |  | CC(C)c1cnnc(Nc2ccc3ncc(-c4cn(C)nc4CN4CCN(C)CC4)cc3n2)c1 [Example 0912, N-(5-isopropylpyridazin-3-yl)-7-(1-methyl-3-((4-methylpiperazin-1-yl)methyl)-1H-pyrazol-4-yl)-1,5-naphthyridine-2-amine] |
| > 6.00 | > 6.00 |  | CC(C)c1cnnc(Nc2ccc3ncc(-c4cn(C)nc4N(C)C)cc3n2)c1 [Example 0938, 7-(3-(Dimethylamino)-1-methyl-1H-pyrazol-4-yl)-N-(5-isopropylpyridazin-3-yl)-1,5-naphthyridine-2-amine] |
| > 6.00 |  | > 6.00 | CC(C)c1cnnc(Nc2ccc3ncc(-c4cn(C)nc4COc4cccnc4)cc3n2)c1 [Example 0799, N-(5-isopropylpyridazin-3-yl)-7-(1-methyl-3-((pyridin-3-yloxy)methyl)-1H-pyrazol-4-yl)-1,5-naphthyridine-2-amine] |
| > 6.00 |  | > 6.00 | CC(C)c1cnnc(Nc2ccc3ncc(-c4cnc(N5CCNCC5)s4)cc3n2)c1 [Example 0502] |

From patent US9783536B2, “Nitrogen-containing heterocyclic compound or salt thereof” (FUJIFILM Corporation, priority 2013, dated 2017)
